Data published in publication PMC8084583, “Monobenzone, a Novel and Potent KDM1A Inhibitor, Suppresses Migration of Gastric Cancer Cells” (Frontiers in Pharmacology, 2021).

Target: KDM1A (Homo sapiens, UniProt O60341)
Experiment: HRP-coupled fluorometric demethylase assay with recombinant KDM1A (H2O2/HRP counter-screen); dialysis and dilution reversibility; cell thermal shift in MGC-803
Type: biochemical

- IC50: 451 nM
Structure (SMILES): Oc1ccc(OCc2ccccc2)cc1 [monobenzone]
